This experiment has as its system Mouse monocyte/macrophage cell line, RAW 264.7. The experiment is described as follows: Cholesterol efflux assay (3H-cholesterol, macrophage cell line). The experiment is classed as cell-based. The conditions noted are these: RAW 264.7, 4 hrs incubation, 0.1% human serum albumin; for 4 h Cholesterol Efflux Emax: ABCA1-mediated efflux.

Where a SMILES comes first, the peptide text is derived from it. [ ]: non-standard residue; d: D form. Aib = CC(C)(N)C(=O)O

On to `CC[C@H](C)[C@H](NC(=O)[C@H](Cc1ccccc1)NC(=O)[C@H](CCC(=O)O)NC(=O)[C@H](CCCNC(=N)N)NC(=O)[C@@H](NC(=O)[C@H](C)NC(=O)[C@H](CCC(=O)O)NC(=O)[C@H](CCC(=O)O)NC(=O)[C@H](CCC(=O)O)NC(=O)[C@H](CCSC)NC(=O)[C@H](CCC(N)=O)NC(=O)[C@H](CCCCN)NC(=O)[C@H](CO)NC(=O)[C@H](CC(C)C)NC(=O)[C@H](CC(=O)O)NC(=O)[C@H](CO)NC(=O)[C@@H](NC(=O)[C@H](Cc1ccccc1)NC(=O)[C@@H](NC(=O)CNC(=O)[C@H](CCC(=O)O)NC(=O)C(C)(C)NC(=O)[C@@H](N)Cc1c[nH]cn1)[C@@H](C)O)[C@@H](C)O)C(C)C)C(=O)N[C@@H](CCC(=O)O)C(=O)N[C@@H](Cc1c[nH]c2ccccc12)C(=O)N[C@@H](CC(C)C)C(=O)N[C@@H](CCCCN)C(=O)N[C@@H](CC(N)=O)C(=O)N[C@@H](CCCCN)C(=O)NC(C)(C)C(=O)N[C@@H](CC(C)C)C(=O)N[C@@H](CCC(=O)O)C(=O)N[C@@H](Cc1ccccc1)C(=O)N[C@@H](CC(C)C)C(=O)N[C@@H](CCC(=O)O)C(=O)N[C@@H](CC(C)C)C(=O)N[C@@H](CC(C)C)C(N)=O` [Compound 29, [Aib2,Glu21,Lys29,Aib30,Leu31,Glu32,Phe33,Leu34,Glu35,Leu36,Leu371-Exendin-4-(1-37)-peptide amide], for which the “4 h Cholesterol Efflux Emax” value is reported as 81%. The term EC50 denotes the concentration needed to bring the measured effect to its halfway point. `CC[C@H](C)[C@H](NC(=O)[C@H](Cc1ccccc1)NC(=O)[C@H](CCC(=O)O)NC(=O)[C@H](CCCCN)NC(=O)[C@@H](NC(=O)[C@H](C)NC(=O)[C@H](CCC(=O)O)NC(=O)CNC(=O)[C@H](CCC(=O)O)NC(=O)[C@H](CC(C)C)NC(=O)[C@H](Cc1ccc(O)cc1)NC(=O)[C@H](CO)NC(=O)[C@H](CO)NC(=O)[C@@H](NC(=O)[C@H](CC(=O)O)NC(=O)[C@H](CO)NC(=O)[C@@H](NC(=O)[C@H](Cc1ccccc1)NC(=O)[C@@H](NC(=O)CNC(=O)[C@H](CCC(=O)O)NC(=O)C(C)(C)NC(=O)[C@@H](N)Cc1c[nH]cn1)[C@@H](C)O)[C@@H](C)O)C(C)C)C(C)C)C(=O)N[C@@H](C)C(=O)N[C@@H](Cc1c[nH]c2ccccc12)C(=O)N[C@@H](CC(C)C)C(=O)N[C@H](C(=O)N[C@@H](CCC(=O)O)C(=O)N[C@@H](CCCCN)C(=O)NC(C)(C)C(=O)N[C@@H](CCCCN)C(=O)N[C@@H](CCC(=O)O)C(=O)N[C@@H](Cc1ccccc1)C(=O)N[C@@H](CC(C)C)C(=O)N[C@@H](CCC(=O)O)C(=O)O)C(C)C` [Compound 100, [Aib8,Glu23,Val25,Glu34,Lys35,Aib36,Lys37]-GLP-1-(7-37)-peptidyl-Glu-Phe-Leu-Glu]: the “4 h Cholesterol Efflux Emax” value is recorded as 104%. Moreover, the EC50 (read-out: 4 h Cholesterol Efflux EC50, ABCA1-mediated efflux (CPT-cAMP induced minus non-induced)) worked out at 0.69 µM.

Take `CC[C@H](C)[C@H](NC(=O)[C@H](Cc1ccccc1)NC(=O)[C@H](CCC(N)=O)NC(=O)[C@H](CCCCN)NC(=O)[C@@H](NC(=O)[C@H](C)NC(=O)[C@H](CCC(N)=O)NC(=O)CNC(=O)[C@H](CCC(=O)O)NC(=O)[C@H](CC(C)C)NC(=O)[C@H](Cc1ccc(O)cc1)NC(=O)[C@H](CO)NC(=O)[C@H](CO)NC(=O)[C@@H](NC(=O)[C@H](CC(=O)O)NC(=O)[C@H](CO)NC(=O)[C@@H](NC(=O)[C@H](Cc1ccccc1)NC(=O)[C@@H](NC(=O)CNC(=O)[C@H](CCC(=O)O)NC(=O)C(C)(C)NC(=O)[C@@H](N)Cc1c[nH]cn1)[C@@H](C)O)[C@@H](C)O)C(C)C)C(C)C)C(=O)N[C@@H](C)C(=O)N[C@@H](Cc1c[nH]c2ccccc12)C(=O)N[C@@H](CC(C)C)C(=O)N[C@H](C(=O)N[C@@H](CCC(=O)O)C(=O)N[C@@H](CCCCN)C(=O)NC(C)(C)C(=O)N[C@@H](C)C(=O)N[C@@H](CCC(=O)O)C(=O)N[C@@H](Cc1ccccc1)C(=O)N[C@@H](CC(C)C)C(N)=O)C(C)C` [Compound 72] (H-H[Aib]EGTFTSDVSSYLEGQAVKQFIAWLVEK[Aib]AEFL-NH2): the “4 h Cholesterol Efflux Emax” value was determined as 78%.

`CC[C@H](C)[C@H](NC(=O)[C@H](Cc1ccccc1)NC(=O)[C@H](CCC(=O)O)NC(=O)[C@H](CCCCN)NC(=O)[C@@H](NC(=O)[C@H](C)NC(=O)[C@H](CCC(=O)O)NC(=O)CNC(=O)[C@H](CCC(=O)O)NC(=O)[C@H](CC(C)C)NC(=O)[C@H](Cc1ccc(O)cc1)NC(=O)[C@H](CO)NC(=O)[C@H](CO)NC(=O)[C@@H](NC(=O)[C@H](CC(=O)O)NC(=O)[C@H](CO)NC(=O)[C@@H](NC(=O)[C@H](Cc1ccccc1)NC(=O)[C@@H](NC(=O)CNC(=O)[C@H](CCC(=O)O)NC(=O)C(C)(C)NC(=O)[C@@H](N)Cc1c[nH]cn1)[C@@H](C)O)[C@@H](C)O)C(C)C)C(C)C)C(=O)N[C@@H](CCCCN)C(=O)N[C@@H](Cc1c[nH]c2ccccc12)C(=O)N[C@@H](CC(C)C)C(=O)N[C@H](C(=O)N[C@@H](CCC(=O)O)C(=O)N[C@@H](CCCCN)C(=O)N[C@@H](CC(C)C)C(=O)N[C@@H](CCCCN)C(=O)N[C@@H](CCC(=O)O)C(=O)N[C@@H](Cc1ccccc1)C(=O)N[C@@H](CC(C)C)C(N)=O)C(C)C` [Compound 85, [Aib8,Glu23,Val25,Lys30,Glu34,Lys35,Leu36,Lys37]-GLP-1-(7-37)-peptidyl-Glu-Phe-Leu amide] (H-H[Aib]EGTFTSDVSSYLEGEAVKEFIKWLVEKLKEFL-NH2): the “4 h Cholesterol Efflux Emax” value came out at 93%. Still for that read-out and setting: with `CC[C@H](C)[C@H](NC(=O)[C@H](Cc1ccccc1)NC(=O)[C@H](CCC(=O)O)NC(=O)[C@H](CCCCN)NC(=O)[C@@H](NC(=O)[C@H](C)NC(=O)[C@H](CCCCN)NC(=O)CNC(=O)[C@H](CCC(=O)O)NC(=O)[C@H](CC(C)C)NC(=O)[C@H](Cc1ccc(O)cc1)NC(=O)[C@H](CO)NC(=O)[C@H](CO)NC(=O)[C@@H](NC(=O)[C@H](CC(=O)O)NC(=O)[C@H](CO)NC(=O)[C@@H](NC(=O)[C@H](Cc1ccccc1)NC(=O)[C@@H](NC(=O)CNC(=O)[C@H](CCC(=O)O)NC(=O)C(C)(C)NC(=O)[C@@H](N)Cc1c[nH]cn1)[C@@H](C)O)[C@@H](C)O)C(C)C)C(C)C)C(=O)N[C@@H](C)C(=O)N[C@@H](Cc1c[nH]c2ccccc12)C(=O)N[C@@H](CC(C)C)C(=O)N[C@H](C(=O)N[C@@H](CCC(=O)O)C(=O)N[C@@H](CCCCN)C(=O)NC(C)(C)C(=O)N[C@@H](CCCCN)C(=O)N[C@@H](CCC(=O)O)C(=O)N[C@@H](Cc1ccccc1)C(=O)N[C@@H](CC(C)C)C(N)=O)C(C)C` [Compound 90, [Aib8,Lys23,Val25,Glu34,Lys35,Aib36,Lys37]-GLP-1-(7-37)-peptidyl-Glu-Phe-Leu amide] (H-H[Aib]EGTFTSDVSSYLEGKAVKEFIAWLVEK[Aib]KEFL-NH2; N-terminus assumed) the figure was 110%.

For the origin of these results see US20150344540A1, “NOVEL GLP-1 RECEPTOR AGONISTS WITH CHOLESTEROL EFFLUX ACTIVITY” (NOVO NORDISK A/S, priority 2012, published 2015).
